# Source: PubChem BioAssay AID1963834 (Molecular Pharmacology Branch, DTP, NCI, 2024)
# System: 873145-292-R-J1-PDC complex spheroid viability
# Test: Anticancer human tumor 873145-292-R-J1-PDC patient-derived renal clear cell carcinoma cell line growth inhibition [POLQ]
# Settings: for IC50: curve of first compound; for viability, T/C: stronger effect = lower value
# Procedure, shortened: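 Growth inhibition in 3D: complex spheroids (tumor PDC, HUVEC, MSC) treated with POLQ inhibitor combinations; where Cmax unknown, highest tested concentration 10 microM, except SN-38 at 1 microM.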
# [1] = second compound 0.0316 µM, first compound 0.0316 µM
# [2] = second compound 0.0316 µM, first compound 0.1 µM
# [3] = second compound 0.1 µM, first compound 0.0316 µM
# [4] = second compound 0.1 µM, first compound 0.1 µM
# [5] = second compound 0.316 µM, first compound 0.0316 µM
# [6] = second compound 0.316 µM, first compound 0.1 µM
# [7] = second compound 1 µM, first compound 0.0316 µM
# [8] = second compound 1 µM, first compound 0.1 µM
# [9] = second compound 3.16 µM, first compound 0.0316 µM
# [10] = second compound 3.16 µM, first compound 0.1 µM
# [11] = second compound 10 µM, first compound 0.0316 µM
# [12] = second compound 10 µM, first compound 0.1 µM
# 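Further: spheroids exposed to compounds for 7 days before viability readout.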
# 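Wherever viability, T/C is given: luminescence signal used as surrogate for viable cell content; 100% = DMSO vehicle control viability.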
structure (smiles),measurement,setting,value
COc1ccc([C@@H](O)c2cc(-c3ncnc4cc(N5CCOCC5)ccc34)c(F)cc2Cl)nn1 + Cc1cccc(N(C)C(=O)C2C(O)CCN2c2nc(C)cc(C(F)(F)F)c2C#N)c1,IC50,second compound 0.0316 µM,5.23 µM
same,IC50,second compound 0.1 µM,7.85 µM
same,IC50,second compound 0.316 µM,4.08 µM
same,IC50,second compound 1 µM,6.45 µM
same,IC50,second compound 3.16 µM,4.83 µM
same,IC50,second compound 10 µM,5.89 µM
same,"viability, T/C",[1],107%
same,"viability, T/C",[2],92.1%
same,"viability, T/C","second compound 0.0316 µM, first compound 0.316 µM",81.5%
same,"viability, T/C","second compound 0.0316 µM, first compound 1 µM",66.6%
same,"viability, T/C","second compound 0.0316 µM, first compound 3.16 µM",56.9%
same,"viability, T/C","second compound 0.0316 µM, first compound 10 µM",42.5%
same,"viability, T/C",[3],105%
same,"viability, T/C",[4],95.3%
same,"viability, T/C","second compound 0.1 µM, first compound 0.316 µM",75.9%
same,"viability, T/C","second compound 0.1 µM, first compound 1 µM",73.1%
same,"viability, T/C","second compound 0.1 µM, first compound 3.16 µM",64.7%
same,"viability, T/C","second compound 0.1 µM, first compound 10 µM",44.4%
same,"viability, T/C",[5],96%
same,"viability, T/C",[6],88.5%
same,"viability, T/C","second compound 0.316 µM, first compound 0.316 µM",76.3%
same,"viability, T/C","second compound 0.316 µM, first compound 1 µM",65.2%
same,"viability, T/C","second compound 0.316 µM, first compound 3.16 µM",55.8%
same,"viability, T/C","second compound 0.316 µM, first compound 10 µM",37.5%
same,"viability, T/C",[7],112%
same,"viability, T/C",[8],88.2%
same,"viability, T/C","second compound 1 µM, first compound 0.316 µM",85.6%
same,"viability, T/C","second compound 1 µM, first compound 1 µM",72.5%
same,"viability, T/C","second compound 1 µM, first compound 3.16 µM",56.1%
same,"viability, T/C","second compound 1 µM, first compound 10 µM",45%
same,"viability, T/C",[9],93.5%
same,"viability, T/C",[10],85.1%
same,"viability, T/C","second compound 3.16 µM, first compound 0.316 µM",91%
same,"viability, T/C","second compound 3.16 µM, first compound 1 µM",71.6%
same,"viability, T/C","second compound 3.16 µM, first compound 3.16 µM",57.4%
same,"viability, T/C","second compound 3.16 µM, first compound 10 µM",39.2%
same,"viability, T/C",[11],96.8%
same,"viability, T/C",[12],82.1%
same,"viability, T/C","second compound 10 µM, first compound 0.316 µM",80.2%
same,"viability, T/C","second compound 10 µM, first compound 1 µM",71.2%
same,"viability, T/C","second compound 10 µM, first compound 3.16 µM",58.1%
same,"viability, T/C","second compound 10 µM, first compound 10 µM",42.4%
Cn1ncnc1[C@H]1c2n[nH]c(=O)c3cc(F)cc(c23)N[C@@H]1c1ccc(F)cc1 + Cc1cccc(N(C)C(=O)C2C(O)CCN2c2nc(C)cc(C(F)(F)F)c2C#N)c1,IC50,second compound 0.0316 µM,> 0.1 µM
same,IC50,second compound 0.1 µM,> 0.1 µM
same,IC50,second compound 0.316 µM,> 0.1 µM
same,IC50,second compound 1 µM,> 0.1 µM
same,IC50,second compound 3.16 µM,> 0.1 µM
same,IC50,second compound 10 µM,> 0.1 µM
same,"viability, T/C","second compound 0.0316 µM, first compound 0.000316 µM",104%
same,"viability, T/C","second compound 0.0316 µM, first compound 0.001 µM",94%
same,"viability, T/C","second compound 0.0316 µM, first compound 0.00316 µM",102%
same,"viability, T/C","second compound 0.0316 µM, first compound 0.01 µM",97.5%
same,"viability, T/C",[1],95.7%
same,"viability, T/C",[2],98%
same,"viability, T/C","second compound 0.1 µM, first compound 0.000316 µM",104%
same,"viability, T/C","second compound 0.1 µM, first compound 0.001 µM",103%
same,"viability, T/C","second compound 0.1 µM, first compound 0.00316 µM",91.6%
same,"viability, T/C","second compound 0.1 µM, first compound 0.01 µM",93.9%
same,"viability, T/C",[3],105%
same,"viability, T/C",[4],88.5%
same,"viability, T/C","second compound 0.316 µM, first compound 0.000316 µM",112%
same,"viability, T/C","second compound 0.316 µM, first compound 0.001 µM",99%
same,"viability, T/C","second compound 0.316 µM, first compound 0.00316 µM",87.6%
same,"viability, T/C","second compound 0.316 µM, first compound 0.01 µM",89.6%
same,"viability, T/C",[5],91.7%
same,"viability, T/C",[6],89.3%
same,"viability, T/C","second compound 1 µM, first compound 0.000316 µM",102%
same,"viability, T/C","second compound 1 µM, first compound 0.001 µM",95.2%
same,"viability, T/C","second compound 1 µM, first compound 0.00316 µM",105%
same,"viability, T/C","second compound 1 µM, first compound 0.01 µM",97%
same,"viability, T/C",[7],97.7%
same,"viability, T/C",[8],96.3%
same,"viability, T/C","second compound 3.16 µM, first compound 0.000316 µM",97%
same,"viability, T/C","second compound 3.16 µM, first compound 0.001 µM",96.3%
same,"viability, T/C","second compound 3.16 µM, first compound 0.00316 µM",105%
same,"viability, T/C","second compound 3.16 µM, first compound 0.01 µM",93.5%
same,"viability, T/C",[9],99.8%
same,"viability, T/C",[10],91.8%
same,"viability, T/C","second compound 10 µM, first compound 0.000316 µM",103%
same,"viability, T/C","second compound 10 µM, first compound 0.001 µM",89.7%
same,"viability, T/C","second compound 10 µM, first compound 0.00316 µM",109%
same,"viability, T/C","second compound 10 µM, first compound 0.01 µM",90.3%
same,"viability, T/C",[11],97.8%
same,"viability, T/C",[12],86.9%
